Article PMC7557599, “Cyclic Peptide-Gadolinium Nanoparticles for Enhanced Intracellular Delivery” (Pharmaceutics, 2020)

system: CCRF-CEM cells; experiment: Time-dependent antiproliferative activity assay (MTS); assay type: cell-based, human; conditions: drug 5 µM, [(WR)5C]-GdNPs 50 µM, 72 h incubation, MTS 490 nm, triplicate (n = 3)
Protocol: Antiproliferative activities of several anticancer drugs, including epirubicin, cisplatin, gemcitabine, etoposide, carboplatin and camptothecin, were evaluated in the presence and absence of [(WR)5C]-GdNPs in CCRF-CEM cells. Different time periods, including 24, 48 and 72 h, were selected. The CellTiter 96 aqueous one solution cell proliferation assay kit (Promega, Madison, WI, USA) was used for the assay. The CCRF-CEM cells (5 × 10^4) were seeded in 100 µL of the media. The cells then placed in each well of the 96-well culture plate. The cells were incubated with drugs alone and [(WR)5C]-GdNPs-loaded drugs at a similar condition in triplicates. To confirm the results, DMSO (1% in water) was used as a control. To entrap the drug, the physical mixing method was used. A calculated volume of the drug solution was mixed with the desired volume of an aqueous solution of [(WR)5C]-GdNPs physically to obtain a final concentration of the drug (5 μM) and the [(WR)5C]-GdNPs (50 μM). The mixture was vortexed until the solution became homogeneous and clear. The mixture was incubated for 30 min at room temperature before adding to the cells to obtain optimized performance. The incubation of cells with their treatments was carried out at 37 °C for 24–72 h. The cell viability assay was performed by adding 20 μL of CellTiter 96 aqueous solution. The cells were incubated for another hour with the MTS reagent. The formazan absorbance was measured at 490 nm by a microplate reader. The percentage of cell survival was calculated as previously reported.
Several anticancer drugs such as epirubicin, cisplatin, gemcitabine, etoposide, carboplatin and camptothecin were evaluated for their antiproliferative activities at different time periods, including 24, 48 and 72 h. […] The improved antiproliferative activity of cisplatin and carboplatin could be due to the chelating of the thiol group of cysteine with these anticancer agents or binding of metals to peptides as GdNPs. […]

| SMILES | enhancement of antiproliferative potency in the presence of [(WR)5C]-GdNPs [%] |
| --- | --- |
| CC[C@@]1(O)C(=O)OCc2c1cc1n(c2=O)Cc2cc3ccccc3nc2-1 [camptothecin] | 8 |
| COc1cccc2c1C(=O)c1c(O)c3c(c(O)c1C2=O)C[C@@](O)(C(=O)CO)C[C@@H]3O[C@H]1C[C@H](N)[C@@H](O)[C@H](C)O1 [epirubicin] | 6 |
| COc1cc([C@@H]2c3cc4c(cc3[C@@H](O[C@@H]3O[C@@H]5CO[C@@H](C)O[C@H]5[C@H](O)[C@H]3O)[C@H]3COC(=O)[C@H]23)OCO4)cc(OC)c1O [etoposide] | 2 |
